These are literature values, as cited in patent US20080275118A1, “HEALTH AND COSMETIC COMPOSITION AND REGIME FOR STIMULATING HAIR GROWTH AND THICKENING ON THE HEAD, INCLUDING THE SCALP, EYELASHES, AND EYEBROWS, AND WHICH DISCOURAGES HAIR LOSS” (priority 2008, published 2008).

In the data set the test system is scalp hair. The note with it: in man, tests carried out on the scalp; Roenigk 1988.

Each structure is given as a SMILES string.

In the case of `C=CC(O)(C/C=C/[C@H]1[C@H](O)CC(=O)[C@@H]1C/C=C\CCCC(=O)OC)CCCC` (stereo partly shown) [viprostol], the hair density result is reported as “increasing hair density”.
